Reference: patent publication US12150995B2, “IRAK degraders and uses thereof” (Kymera Therapeutics, Inc., priority 2020, dated 2024)

Molecular target: T1, IRAK4 (Homo sapiens, UniProt Q9NWZ3)
T1 construct: endogenous in cells; host or cells: OCI-LY10
T1 sequence (Q9NWZ3 1-460): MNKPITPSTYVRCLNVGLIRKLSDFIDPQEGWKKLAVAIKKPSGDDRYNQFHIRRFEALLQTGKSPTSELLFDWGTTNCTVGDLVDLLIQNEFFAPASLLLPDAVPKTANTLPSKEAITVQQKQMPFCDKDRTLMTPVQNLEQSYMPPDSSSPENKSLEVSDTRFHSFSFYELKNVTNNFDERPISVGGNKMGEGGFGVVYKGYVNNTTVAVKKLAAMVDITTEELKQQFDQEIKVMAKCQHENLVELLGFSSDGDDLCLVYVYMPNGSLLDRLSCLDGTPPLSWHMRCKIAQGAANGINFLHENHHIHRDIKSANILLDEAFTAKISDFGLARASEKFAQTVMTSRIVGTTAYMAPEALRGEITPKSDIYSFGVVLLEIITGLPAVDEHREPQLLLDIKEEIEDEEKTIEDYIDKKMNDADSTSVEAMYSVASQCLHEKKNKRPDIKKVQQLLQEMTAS
Assay: IRAK4 MSD Degradation in OCI-LY10
Assay type: cell-based
Details: OCI-LY10 cells, Meso Scale Discovery, incubated 4 to 24 hours
Procedure: Degradation of IRAK4 in OCI-LY10 was quantitatively measured using Meso Scale Discovery technology. OCI-LY10 cells were seeded in 96-well plates (Corning 3799) with a density of 300,000 cells per well in 100 μL fresh media. Compounds were then added to the assay plates with a final top concentration of 1 to 10 μM in a 1:3 dilution series with total of 8 doses. The assay plates were then incubated for 4 to 24 hours at 37° C. under 5% CO2. The assay plates were then centrifuged for 5 minutes and the cell pellets were treated with 100 μL/well RIPA lysis buffer (Boston BioProducts BP-115D) with proteinase inhibitors. To prepare MSD assay plates (Meso Scale Discovery Catalog number L15XA-3), the plates were coated with 2 μg/mL capture antibody (mouse Anti-IRAK4 antibody [2H9], ab119942) in PBS, at 40 μL/well. The plates were then incubated overnight at 4° C., washed 3 times with 150 μL/well TBST buffer (Cell Signaling Technology, Catalog number 9997S) and blocked with 150 μL/well blocking buffer (Meso Scale Discovery Catalog number R93BA-4). Cell lysates were then added to MSD assay plates and the plates were incubated at room temperature for 1 hour. The plates were then washed 3 times with 150 μL/well TBST buffer and […] primary detection antibody (rabbit Anti-IRAK4 antibody [Y279], from Abcam. Catalog number ab32511, 1 μg/mL). The assay plates were then incubated at room temperature for 1 hour, washed 3 times with 150 μL/well TBST buffer and 254/well secondary detection antibody, SULFO-TAG anti-rabbit antibody were added (anti rabbit antibody from Meso Scale Discovery, Catalog number R32AB-1, 1 μg/mL). The assay plates were then incubated at room temperature for 1 hour, washed 3 times with 150 μL/well TBST buffer, and 150 μL/well MSD reading buffer (Meso Scale Discovery catalog number R92TC-2) was added. The plates were then analyzed by a MSD reader (Meso Scale Discovery, Model Quick Plex SQ 120). The data was then analyzed by software Prism 7.0 from GraphPad and the dose-depended IRAK4 degradation were fit using a three-parameter logistic equation to calculate DC50.
The letter codes for IRAK4 DC50 include: A (<0.01 μM); B (0.01-0.05 μM); C (0.05-0.1 μM); D (0.1-0.2 μM); and E (>0.2 μM).

DC50 [nM]	SMILES
10 to 50	O=C1CCN(c2cncc3c(C4CCN(C[C@H]5CC[C@H](n6cc7cc(NC(=O)c8cccc(C(F)(F)F)n8)ncc7n6)CC5)CC4)cccc23)C(=O)N1 [I-103]
> 200	CN(CCCNc1cccc2c1C(=O)N(C1CCC(=O)NC1=O)C2=O)C[C@H]1CC[C@H](c2nc3cc(C(C)(C)O)c(NC(=O)c4cncc(Cl)c4)cc3s2)CC1 (some centres unmarked) [I-476]
> 200	COc1cc2nc([C@H]3CC[C@H](CN(C)CCNc4cccc5c4C(=O)N(C4CCC(=O)NC4=O)C5=O)CC3)sc2cc1NC(=O)c1cncc(Cl)c1 (some centres unmarked) [I-484]
< 10	COc1cc(NC(=O)c2cccc(C(F)(F)F)n2)cc2cn([C@H]3CC[C@H](CN4CCN(c5cccc6c5n(C)c(=O)n6C5CCC(=O)NC5=O)CC4)CC3)nc12 (some centres unmarked) [I-218]
< 10	COc1cc2nn([C@H]3CC[C@H](CN4CCN(c5cccc6c5n(C)c(=O)n6C5CCC(=O)NC5=O)CC4)CC3)cc2cc1NC(=O)c1cncc(C(F)(F)F)n1 (some centres unmarked) [I-297]
< 10	COc1cc2nn([C@H]3CC[C@H](CN4CC[C@@H](c5cccc6c5n(C)c(=O)n6C5CCC(=O)NC5=O)C4)CC3)cc2cc1NC(=O)c1cccc(C(F)(F)F)n1 (some centres unmarked) [I-428]
< 10	Cn1c(=O)n(C2CCC(=O)NC2=O)c2cccc(C3CCN(C[C@H]4CC[C@H](n5cc6cc(NC(=O)c7cnn8cc(C#N)cnc78)ccc6n5)CC4)CC3)c21 (some centres unmarked) [I-95]
> 200	Cc1cccc(C(=O)Nc2cc3sc([C@H]4CC[C@H](C(=O)N5CCC6(CC5)CC(CCNc5cccc7c5C(=O)N(C5CCC(=O)NC5=O)C7=O)C6)CC4)nc3cc2C(C)(C)O)n1 (some centres unmarked) [I-474]
10 to 50	COc1cc2nn([C@H]3C[C@H](CN4CCC(c5c(F)ccc6c5n(C)c(=O)n6C5CCC(=O)NC5=O)CC4)C3)cc2cc1NC(=O)c1cccc(C(F)(F)F)n1 (some centres unmarked) [I-89]
10 to 50	COc1cc2nn([C@H]3CC[C@H](CN4CCC(c5cccc6c(N7CCC(=O)NC7=O)cncc56)CC4)CC3)cc2cc1NC(=O)c1cc(F)cc(C(F)(F)F)c1 [I-123]
> 200	COc1cc2nn([C@H]3CC[C@H](CN4CCN(c5ccc(N6CCC(=O)NC6=O)cc5)CC4)CC3)cc2cc1NC(=O)c1cccc(C(F)(F)F)n1 [I-312]
< 10	CC(C)Nc1cc(-n2ccc3cc(C#N)cnc32)ncc1C(=O)N[C@H]1CC[C@H](CN(C)C2CCN(c3cccc4c3n(C)c(=O)n4C3CCC(=O)NC3=O)CC2)CC1 (some centres unmarked) [I-118]
< 10	COc1cc2nn([C@H]3C[C@@H](CN(C)C4CCN(c5cccc6c5n(C)c(=O)n6C5CCC(=O)NC5=O)CC4)C3)cc2cc1NC(=O)c1cccc(C(F)(F)F)n1 (some centres unmarked) [I-32, N-[2-[3-[[[1-[1-(2,6-dioxo-3-piperidyl)-3-methyl-2-oxo-benzimidazol-4-yl]-4-piperidyl]-methyl-amino]methyl]cyclobutyl]-6-methoxy-indazol-5-yl]-6-(trifluoromethyl)pyridine-2-carboxamide]
< 10	Cn1c(=O)n(C2CCC(=O)NC2=O)c2cccc(N3CCN(C[C@H]4CC[C@H](n5cc6cc(NC(=O)c7cccc(C(F)(F)F)n7)c(S(C)(=O)=O)cc6n5)CC4)CC3)c21 (some centres unmarked) [I-422]
10 to 50	CC(C)Nc1cc(-n2ccc3cc(C#N)cnc32)ncc1C(=O)N[C@H]1CC[C@H](CN2CCC(c3ccc4c(N5CCC(=O)NC5=O)cncc4c3)CC2)CC1 [I-127]

The remaining lines, values behind:

SMILES	DC50 [nM]
CC(C)(O)c1cc2nn([C@H]3CC[C@H](CN4CCC(c5cccc6c(N7CCC(=O)NC7=O)cncc56)CC4)CC3)cc2cc1NC(=O)c1cccc(C(F)(F)F)n1 [I-78, N-[2-[4-[[4-[4-(2,4-dioxohexahydropyrimidin-1-yl)-8-isoquinolyl]-1-piperidyl]methyl]cyclohexyl]-6-(1-hydroxy-1-methyl-ethyl)indazol-5-yl]-6-(trifluoromethyl)pyridine-2-carboxamide]	< 10
Cc1cc2nn([C@H]3CC[C@H](CN4CCN(c5cccc6c5n(C)c(=O)n6[C@H]5CCC(=O)NC5=O)CC4)CC3)cc2cc1NC(=O)c1cccc(C(F)(F)F)n1 [I-399, N-[2-[4-[[4-[1-[(3S)-2,6-dioxo-3-piperidyl]-3-methyl-2-oxo-benzimidazol-4-yl]piperazin-1-yl]methyl]cyclohexyl]-6-methyl-indazol-5-yl]-6-(trifluoromethyl)pyridine-2-carboxamide]	10 to 50
CN(C[C@H]1CC[C@H](n2cc3cc(NC(=O)c4cccc(C(F)(F)F)n4)ccc3n2)CC1)C1CCN(c2ccc3c(N4CCC(=O)NC4=O)cncc3c2)CC1 [I-319]	10 to 50
COc1cc2nn([C@H]3CC[C@H](CN4CCN(c5cccc6c5n(C)c(=O)n6C5CCC(=O)NC5=O)C[C@H]4C)CC3)cc2cc1NC(=O)c1cccc(C(F)(F)F)n1 (some centres unmarked) [I-243]	< 10
Cn1c(=O)n(C2CCC(=O)NC2=O)c2ccc(Cl)c(C3CCN(C[C@H]4C[C@H](n5cc6cc(NC(=O)c7cccc(C(F)(F)F)n7)ccc6n5)C4)CC3)c21 (some centres unmarked) [I-150]	100 to 200
COc1cc2nn([C@H]3CC[C@H](CN(C)C4CCN(c5cccc6c5n(C)c(=O)n6C5CCC(=O)NC5=O)CC4)CC3)cc2cc1NC(=O)c1cc(F)cc(C(F)(F)F)c1 (some centres unmarked) [I-131]	10 to 50
CN(C[C@H]1CC[C@H](n2cc3cc(NC(=O)c4cccc(C(F)(F)F)n4)ncc3n2)CC1)C1CCN(c2ccc3c(N4CCC(=O)NC4=O)cncc3c2)CC1 [I-317]	100 to 200
O=C1CCN(c2cncc3c(C4CCN(C[C@H]5CC[C@H](c6nc7cnc(NC(=O)c8cccc(C(F)(F)F)n8)cc7s6)CC5)CC4)cccc23)C(=O)N1 [I-171]	10 to 50
CC(C)Nc1c(C(=O)N[C@H]2CC[C@H](CN3CCC(c4cccc5c4n(C)c(=O)n5C4CCC(=O)NC4=O)CC3)CC2)cnc2c1Oc1cc(C#N)ccc1O2 (some centres unmarked) [I-309]	< 10
Cn1c(=O)n(C2CCC(=O)NC2=O)c2cccc(C3CCN(C[C@H]4C[C@@H](n5cc6cc(NC(=O)c7cccc(C(F)(F)F)n7)c(F)cc6n5)C4)CC3)c21 (some centres unmarked) [I-18]	> 200
COc1cc2nn([C@H]3CC[C@H](CN(C)C4CCN(c5cc(Cl)cc6c5n(C)c(=O)n6C5CCC(=O)NC5=O)CC4)CC3)cc2cc1NC(=O)c1cccc(C(F)(F)F)n1 (some centres unmarked) [I-54]	< 10
Cn1c(=O)n(C2CCC(=O)NC2=O)c2cccc(C3CC4CCC(C3)N4C[C@H]3CC[C@H](n4cc5cc(NC(=O)c6cccc(C(F)(F)F)n6)ccc5n4)CC3)c21 (single isomer, unassigned) [I-251]	< 10
COc1cc2nc([C@H]3CC[C@H](CN(C)CCCNc4cccc5c4C(=O)N(C4CCC(=O)NC4=O)C5=O)CC3)sc2cc1NC(=O)c1cncc(F)c1 (some centres unmarked) [I-482]	> 200
CN(C(=O)[C@H]1CC[C@H](n2cc3cc(NC(=O)c4cccc(C(F)(F)F)n4)ccc3n2)CC1)C1CCN(c2cccc3c2n(C)c(=O)n3C2CCC(=O)NC2=O)CC1 (some centres unmarked) [I-186]	< 10
CN(CCn1cc2cc(NC(=O)c3cnn4cccnc34)c(F)cc2n1)C1CCN(c2cccc3c2n(C)c(=O)n3C2CCC(=O)NC2=O)CC1 (centres unmarked) [I-22, N-[2-[2-[[1-[1-(2,6-dioxo-3-piperidyl)-3-methyl-2-oxo-benzimidazol-4-yl]-4-piperidyl]-methyl-amino]ethyl]-6-fluoro-indazol-5-yl]pyrazolo[1,5-a] pyrimidine-3-carboxamide]	> 200
Cn1c(=O)n(C2CCC(=O)NC2=O)c2cccc(N3CCN(C[C@H]4CC[C@H](n5cc6cc(NC(=O)c7cccc(C(F)(F)F)n7)c(N7CCC7)cc6n5)CC4)CC3)c21 (some centres unmarked) [I-387]	10 to 50
COc1ccc2c(c1N1CCN(C[C@H]3CC[C@H](NC(=O)c4cnc(-c5ccc6cc(C#N)cnn56)cc4NC(C)C)CC3)CC1)n(C)c(=O)n2C1CCC(=O)NC1=O (some centres unmarked) [I-395]	< 10
COc1cc2nn([C@H]3CC[C@H](CN4CC[C@@H](c5cccc6c(N7CCC(=O)NC7=O)cncc56)C4)CC3)cc2cc1NC(=O)c1cccc(C(F)(F)F)n1 [I-291]	10 to 50
CC(C)Nc1c(C(=O)N[C@H]2CC[C@H](CN3CCN(c4cccc5c(N6CCC(=O)NC6=O)cncc45)CC3)CC2)cnc2sc(-c3cncs3)cc12 [I-418]	10 to 50
Cn1c(=O)n(C2CCC(=O)NC2=O)c2ccc(Cl)c(C3CCN(C[C@H]4CC[C@H](n5cc6cc(NC(=O)c7cccc(C(F)(F)F)n7)ccc6n5)CC4)CC3)c21 (some centres unmarked) [I-106]	10 to 50
